Measured values published in patent US11919902B2, “Aryl-bipyridine amine derivatives as phosphatidylinositol phosphate kinase inhibitors” (HiberCell, Inc., priority 2017, dated 2024).

How the values were obtained:
[1] = biological target: T1, PIP4K2A (full length protein, SignalChem) (Homo sapiens, UniProt P48426); assay: Kinase Assay PIP4K2 A (Sprint); ADP-Glo biochemical assay; conditions: Table 2; compounds listed under IC50 range headings
T1 construct: 4 nM PIP4K2A (full length protein, SignalChem); purchased SignalChem
T1 sequence (P48426 1-406): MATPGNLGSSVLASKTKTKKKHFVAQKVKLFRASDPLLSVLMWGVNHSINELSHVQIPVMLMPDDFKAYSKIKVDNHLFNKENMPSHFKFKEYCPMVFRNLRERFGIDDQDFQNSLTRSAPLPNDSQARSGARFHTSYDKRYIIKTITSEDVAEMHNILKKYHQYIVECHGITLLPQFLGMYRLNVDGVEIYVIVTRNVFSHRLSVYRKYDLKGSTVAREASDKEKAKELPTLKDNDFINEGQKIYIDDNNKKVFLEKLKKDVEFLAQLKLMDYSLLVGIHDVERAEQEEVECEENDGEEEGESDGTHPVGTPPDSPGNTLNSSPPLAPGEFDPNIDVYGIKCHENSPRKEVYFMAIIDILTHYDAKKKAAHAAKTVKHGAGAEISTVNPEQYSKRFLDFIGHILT
Outline: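 Compounds (10-point, 3-fold dilutions) were pre-incubated 15 min at RT with an enzyme/substrate mix of 4 nM full-length PIP4K2A and 100 μM PI(5)P diC8 in 20 mM MOPS pH 7.2, 25 mM MgCl2, 0.005% Tween 20. A 60 μM ATP solution was added, reaction 1 h RT; ADP read by ADP-Glo luminescence, IC50 fitted from % inhibition vs DMSO.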

GST tagged PIP4KtypeIIA = biological target: T2, GST tagged PIP4KtypeIIA (Homo sapiens, UniProt P48426); assay: ADP-glo kinase assay PIP4K 2A (PIP4KtypeIIA inhibition assay); format: biochemical; conditions: Table 3; compounds listed under IC50 range headings; 10 uM ATP, 0.5 nM PIP4KIIA
T2 construct: made in house; host or cells: E. coli
T2 sequence (P48426 1-406): T1 sequence (P48426 1-406)
Outline: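 E. coli-expressed GST-PIP4KtypeIIA (0.5 nM final) was preincubated 1 h at 27 °C with compound (up to 4.8 μM, 5% DMSO) in PI5P/DOPE lipid in 50 mM HEPES pH 7.3 with 10 mM MgCl2. The reaction was started with 10 μM ATP (final) and run 1 h. ADP was read by ADP-Glo luminescence via a calibration curve, and IC50 was taken from % residual activity.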

GST tagged PIP4KtypeIIB = biological target: T3, GST tagged PIP4KtypeIIB (Homo sapiens, UniProt P78356); assay: Trans-FI P kinase assay PIP4K2B (PIP4KtypeIIB inhibition assay); format: biochemical; conditions: Table 4; compounds listed under IC50 range headings; 100 uM GTP, 5 nM PIP4KIIB; read-out: Trans-FI P kinase assays: PIP4K2B IC50
T3 construct: made in house; host or cells: E. coli
T3 sequence (P78356 1-416): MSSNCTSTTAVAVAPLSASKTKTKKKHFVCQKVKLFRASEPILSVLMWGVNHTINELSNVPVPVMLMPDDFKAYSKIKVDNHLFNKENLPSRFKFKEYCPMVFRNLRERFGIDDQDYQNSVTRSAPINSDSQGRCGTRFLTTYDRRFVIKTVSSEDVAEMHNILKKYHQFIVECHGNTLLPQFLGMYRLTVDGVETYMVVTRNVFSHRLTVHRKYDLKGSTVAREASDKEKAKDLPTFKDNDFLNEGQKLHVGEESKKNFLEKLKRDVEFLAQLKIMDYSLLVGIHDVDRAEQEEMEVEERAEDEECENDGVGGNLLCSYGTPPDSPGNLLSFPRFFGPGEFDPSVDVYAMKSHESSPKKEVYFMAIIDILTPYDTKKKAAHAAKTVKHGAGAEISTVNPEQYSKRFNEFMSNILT
Outline: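 Purified GST-PIP4KIIB (5 nM final), 1 h preincubation with compound at 27 C, then 2 h reaction with 100 uM GTP and 80 uM PI5P plus DOPE carrier lipid in pH 7.3 HEPES/MgCl2/Triton buffer with 5% DMSO. GDP read by Transcreener FI fluorescence against a calibration curve; IC50 from % no-inhibitor activity vs log concentration.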

Row | IC50 [1] [nM] | IC50 (GST tagged PIP4KtypeIIA) [nM] | IC50 (GST tagged PIP4KtypeIIB) [nM] | Structure (SMILES)
1 | 100 to 1000 | 1000 to 2500 | > 5000 | CN(C)C(=O)c1ccc(-c2cc(-c3cnc4c(c3)c(-c3cccnc3)nn4C)cnc2N)nc1 [Example 123, 2′-amino-N,N-dimethyl-5′-(1-methyl-3-(pyridin-3-yl)-1H-pyrazolo[3,4-b]pyridin-5-yl)-[2,3′-bipyridine]-5-carboxamide]
2 | 100 to 1000 | 2500 to 5000 | 1000 to 2500 | O=C1CCCN1c1ccc(-c2cncc(-c3ccnc4c3OCCO4)c2)cc1 [Example 40, 1-[4-[5-(2,3-Dihydro-[1,4]dioxino[2,3-b]pyridin-8-yl)-3-pyridyl]phenyl]pyrrolidin-2-one]
3 | 2500 to 5000 | > 5000 | > 5000 | CN(C)C(=O)c1ccc(-c2cc(-c3ccnc(CNC(=O)c4ccc(NC(=O)OC(C)(C)C)cc4)c3)cnc2N)nc1 [Example 187, tert-butyl(4-(((2′-amino-5-(dimethylcarbamoyl)-[2,3′:5′,4″-terpyridin]-2″-yl)methyl)carbamoyl)phenyl)carbamate]
4 | < 5000 | > 5000 | 1000 to 2500 | Nc1ncc(-c2ccnc3[nH]c(C(=O)NCc4ccccc4)cc23)cc1-c1ccc(C(=O)NCc2ccccc2)cn1 [Example 221, 4-(2′-amino-5-(benzylcarbamoyl)-[2,3′-bipyridin]-5′-yl)-N-benzyl-1H-pyrrolo[2,3-b]pyridine-2-carboxamide]
5 | 1000 to 2500 | 2500 to 5000 | > 5000 | Nc1ncc(-c2cccc3nccn23)cc1-c1ccc(N2CCCC2=O)cn1 [Example 25, 1-(2′-amino-5′-(imidazo[1,2-a]pyridin-5-yl)-[2,3′-bipyridin]-5-yl)pyrrolidin-2-one]
6 | 100 to 1000 | 100 to 1000 | 100 to 1000 | O=C1CCCN1c1ccc(-c2cncc(-c3ccnc4c3cnn4CCO)c2)cc1 [Example 44, 1-(4-(5-(1-(2-hydroxyethyl)-1H-pyrazolo[3,4-b]pyridin-4-yl)pyridin-3-yl)phenyl)pyrrolidin-2-one]
7 | 100 to 1000 | 1000 to 2500 | 100 to 1000 | Cc1cnc2[nH]ccc2c1-c1cncc(-c2ccc(N3CCCC3=O)cc2)c1 [Example 35, 1-(4-(5-(5-methyl-1H-pyrrolo[2,3-b]pyridin-4-yl)pyridin-3-yl)phenyl)pyrrolidin-2-one]
8 | 5 to 100 | 10 to 100 | 10 to 100 | COC(=O)c1cc2c(-c3cncc(-c4ccc(N5CCCC5=O)cc4)c3)ccnc2[nH]1 [Example 302, methyl 4-(5-(4-(2-oxopyrrolidin-1-yl)phenyl)pyridin-3-yl)-1H-pyrrolo[2,3-b]pyridine-2-carboxylate]
9 | 5 to 100 | 100 to 1000 | 100 to 1000 | CC(O)c1cnc2[nH]cc(-c3cncc(-c4ccc(C(=O)N(C)C)cc4)c3)c2c1 (stereo not drawn) [Example 15, 4-(5-(5-(1-hydroxyethyl)-1H-pyrrolo[2,3-b]pyridin-3-yl)pyridin-3-yl)-N,N-dimethylbenzamide]
10 | 5 to 100 | 100 to 1000 | 10 to 100 | O=C1c2cc3c(-c4cncc(-c5ccc(N6CCCC6=O)cc5)c4)ccnc3n2CCN1CC1CC1 [Example 47, 7-(cyclopropylmethyl)-4-(5-(4-(2-oxopyrrolidin-1-yl)phenyl)pyridin-3-yl)-8,9-dihydropyrido[3′,2′:4,5]pyrrolo[1,2-a]pyrazin-6(7H)-one]
11 | 5 to 100 | 10 to 100 | 10 to 100 | COC(=O)c1cc2c(-c3cnc(N)c(-c4ccc(C(=O)N(C)C)cn4)c3)ccnc2[nH]1 [Example 126, methyl 4-(2′-amino-5-(dimethylcarbamoyl)-[2,3′-bipyridin]-5′-yl)-1H-pyrrolo[2,3-b]pyridine-2-carboxylate]
12 | 5 to 100 | 100 to 1000 | 100 to 1000 | Cn1cc(-c2cnc(N)c(-c3ccc(N4CCCC4=O)cc3)c2)c2cccnc21 [Example 87, 1-(4-(2-amino-5-(1-methyl-1H-pyrrolo[2,3-b]pyridin-3-yl)pyridin-3-yl)phenyl)pyrrolidin-2-one]
13 | 5 to 100 | 100 to 1000 | 100 to 1000 | Cn1cc2c(-c3cncc(-c4ccc(N5CCCC5=O)cc4)c3)c[nH]c(=O)c2n1 [Example 159, 2-methyl-4-(5-(4-(2-oxopyrrolidin-1-yl)phenyl)pyridin-3-yl)-2,6-dihydro-7H-pyrazolo[3,4-c]pyridin-7-one]
14 | 5 to 100 | 100 to 1000 | 10 to 100 | CC(C)OC(=O)c1cc2c(-c3cncc(-c4ccc(N5CCCC5=O)cc4)c3)ccnc2[nH]1 [Example 161, isopropyl 4-(5-(4-(2-oxopyrrolidin-1-yl)phenyl)pyridin-3-yl)-1H-pyrrolo[2,3-b]pyridine-2-carboxylate]
15 | 100 to 1000 | 100 to 1000 | 100 to 1000 | O=C1CCCN1c1ccc(-c2cncc(-c3ncnc4n[nH]cc34)c2)cc1 [Example 223, 1-(4-(5-(2H-pyrazolo[3,4-d]pyrimidin-4-yl)pyridin-3-yl)phenyl)pyrrolidin-2-one]
16 | 5 to 100 | 100 to 1000 | 10 to 100 | CCOC(=O)c1cc2c(-c3cncc(-c4ccc(N5CCCC5=O)cc4)c3)ccnc2[nH]1 [Example 162, ethyl 4-(5-(4-(2-oxopyrrolidin-1-yl)phenyl)pyridin-3-yl)-1H-pyrrolo[2,3-b]pyridine-2-carboxylate]
17 | 1 to 5 | 1 to 10 | 1 to 10 | Nc1ncc(-c2ccnc3oc(C(=O)NCC4CC4)cc23)cc1-c1ccc(N2CCCC2=O)cc1 [Example 89, 4-(6-amino-5-(4-(2-oxopyrrolidin-1-yl)phenyl)pyridin-3-yl)-N-(cyclopropylmethyl)furo[2,3-b]pyridine-2-carboxamide]
18 | 5 to 100 | 100 to 1000 | 10 to 100 | CN(C)C(=O)c1ccc(-c2cc(-c3ccnc4[nH]c(C(=O)N(C)C)cc34)cnc2N)nc1 [Example 127, 4-(2′-amino-5-(dimethylcarbamoyl)-[2,3′-bipyridin]-5′-yl)-N,N-dimethyl-1H-pyrrolo[2,3-b]pyridine-2-carboxamide]
19 | 100 to 1000 | 100 to 1000 | 100 to 1000 | CNC(=O)c1cc2c(-c3cncc(-c4ccc(C(=O)N(C)C)cc4)c3)ccnc2o1 [Example 14, 4-(5-(4-(dimethylcarbamoyl)phenyl)pyridin-3-yl)-N-methylfuro[2,3-b]pyridine-2-carboxamide]
20 | 5 to 100 | 100 to 1000 | 100 to 1000 | O=C1CCCN1c1ccc(-c2cncc(-c3cc(C4CC4)nc4n[nH]cc34)c2)cc1 [Example 267, 1-(4-(5-(6-cyclopropyl-2H-pyrazolo[3,4-b]pyridin-4-yl)pyridin-3-yl)phenyl)pyrrolidin-2-one]
21 | 1000 to 2500 | > 5000 | > 5000 | O=C1CCCN1c1ccc(-c2cncc(-c3ccncc3)c2)cc1 [Example 41, 1-[4-[5-(4-Pyridyl)-3-pyridyl]phenyl]pyrrolidin-2-one]
22 | 5 to 100 | 100 to 1000 | 100 to 1000 | Cc1c(-c2ccc(N3CCCC3=O)cc2)cncc1-c1ccnc2[nH]c(C(=O)N(C)C)cc12 [Example 173, N,N-dimethyl-4-(4-methyl-5-(4-(2-oxopyrrolidin-1-yl)phenyl)pyridin-3-yl)-1H-pyrrolo[2,3-b]pyridine-2-carboxamide]
